Assay results taken from patent US4401595A, “4-Allyl azetidinone intermediate for β-lactam antibacterial agents” (Beecham Group Limited, priority 1977, dated 1983).
Converted amounts (≈) assume the structure as drawn. Read-outs that look alike come from different tables or passages of the source.

Legend:
Strep pneumoniae = assay: MIC in agar; assay type: cell-based; details: read-out: concentration required to inhibit the growth
Strep faecalis I = assay: MIC in agar; assay type: cell-based; details: read-out: concentration required to inhibit the growth
Bacillus subtilis A = assay: MIC in agar; assay type: cell-based; details: read-out: MIC, concentration required to inhibit the growth
Klebsiella aerogenes A = assay: MIC in agar; assay type: cell-based; details: read-out: MIC, concentration required to inhibit the growth
Staph. aureus 1517 = assay: MIC in agar; assay type: cell-based; details: Staphylococcus aureus, read-out: MIC, concentration required to inhibit the growth
Staph. aureus Oxford = assay: MIC in agar; assay type: cell-based; details: Staphylococcus aureus, read-out: concentration required to inhibit the growth
Strep pyogenes CN10 = assay: MIC in agar; assay type: cell-based; details: read-out: concentration required to inhibit the growth
Staph. aureus Russell = assay: MIC in agar; assay type: cell-based; details: Staphylococcus aureus, read-out: MIC, concentration required to inhibit the growth
Shigella sonnei MB 11967 = assay: MIC in agar; assay type: cell-based; details: MB11967, read-out: MIC, concentration required to inhibit the growth
Citrobacter freundii E8 = assay: MIC in agar; assay type: cell-based; details: read-out: MIC, concentration required to inhibit the growth
Enterobacter cloacae N1 = assay: MIC in agar; assay type: cell-based; details: read-out: concentration required to inhibit the growth
Serratia marcescens US20 = assay: MIC in agar; assay type: cell-based
Pseudomonas aeruginosa A = assay: MIC in agar; assay type: cell-based; details: read-out: concentration required to inhibit the growth
E. coli 0111 = assay: MIC in agar; assay type: cell-based; details: Escherichia coli, read-out: concentration required to inhibit the growth
[1] = system: Salmonella typhimurium CT10; assay: MIC in agar; assay type: cell-based; details: Salmonella enterica, read-out: concentration required to inhibit the growth
Proteus mirabilis C977 = assay: MIC in agar; assay type: cell-based; details: read-out: concentration required to inhibit the growth
Proteus morganii I 580 = assay: MIC in agar; assay type: cell-based; details: Morganella morganii, I580, read-out: concentration required to inhibit the growth
Proteus rettgeri WM16 = assay: MIC in agar; assay type: cell-based; details: Providencia rettgeri, read-out: concentration required to inhibit the growth
Klebsiella aerogenes = assay: MIC in agar; assay type: cell-based; details: Klebsiella aerogenes (strain not given), read-out: concentration required to inhibit the growth
Salmonella typhimurium = assay: MIC in agar; assay type: cell-based; details: Salmonella enterica, Salmonella typhimurium (strain not given), read-out: concentration required to inhibit the growth
Proteus vulgaris WO 91 = assay: MIC in agar; assay type: cell-based; details: WO91, read-out: concentration required to inhibit the growth
[2] = molecular target: β-lactamase, Pseudomonas dalgleish (Pseudomonas aeruginosa, UniProt P16897); assay: β-lactamase inhibition I50; assay type: biochemical
β-lactamase, Pseudomonas dalgleish, sequence (P16897 18-288): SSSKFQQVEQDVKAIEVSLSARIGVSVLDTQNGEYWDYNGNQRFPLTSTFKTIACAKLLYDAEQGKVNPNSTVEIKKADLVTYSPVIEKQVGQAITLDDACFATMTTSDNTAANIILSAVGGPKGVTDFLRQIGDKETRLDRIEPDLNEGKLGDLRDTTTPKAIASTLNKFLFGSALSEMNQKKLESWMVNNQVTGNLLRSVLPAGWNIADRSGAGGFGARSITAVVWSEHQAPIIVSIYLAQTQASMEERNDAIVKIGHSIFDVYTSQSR

[3] = molecular target: β-lactamase, Enterobacter P99 (Enterobacter cloacae, UniProt P05364); assay: β-lactamase inhibition I50; assay type: biochemical
β-lactamase, Enterobacter P99, sequence (P05364 21-381): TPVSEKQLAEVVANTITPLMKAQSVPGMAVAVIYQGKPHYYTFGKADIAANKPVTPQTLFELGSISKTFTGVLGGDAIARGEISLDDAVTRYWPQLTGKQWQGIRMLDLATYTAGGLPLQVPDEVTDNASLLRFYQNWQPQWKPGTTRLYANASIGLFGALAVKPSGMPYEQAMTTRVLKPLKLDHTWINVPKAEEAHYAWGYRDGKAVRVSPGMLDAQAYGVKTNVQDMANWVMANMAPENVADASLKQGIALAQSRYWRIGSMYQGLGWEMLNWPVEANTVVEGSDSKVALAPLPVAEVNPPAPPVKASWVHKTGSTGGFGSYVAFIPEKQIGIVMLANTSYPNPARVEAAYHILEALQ

[4] = molecular target: β-lactamase, Proteus mirabilis C889; assay: β-lactamase inhibition I50; assay type: biochemical
[5] = molecular target: β-lactamase, Escherichia coli JT4 (Escherichia coli, UniProt P62593); assay: β-lactamase inhibition I50; assay type: biochemical
β-lactamase, Escherichia coli JT4, sequence (P62593 24-286 limits assumed): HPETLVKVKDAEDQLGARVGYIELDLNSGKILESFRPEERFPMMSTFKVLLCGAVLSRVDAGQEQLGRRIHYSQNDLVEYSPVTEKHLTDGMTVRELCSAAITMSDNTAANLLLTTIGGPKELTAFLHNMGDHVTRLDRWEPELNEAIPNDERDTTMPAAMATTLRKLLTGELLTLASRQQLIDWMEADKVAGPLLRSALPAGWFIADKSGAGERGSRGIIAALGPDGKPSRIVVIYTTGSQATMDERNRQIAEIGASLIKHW

[6] = molecular target: β-lactamase, Klebsiella aerogenes E70; assay: β-lactamase inhibition I50; assay type: biochemical
[7] = molecular target: β-lactamase, Pseudomonas aeruginosa A (Pseudomonas aeruginosa, UniProt P24735); assay: β-lactamase inhibition I50; assay type: biochemical
β-lactamase, Pseudomonas aeruginosa A, sequence (P24735 27-397): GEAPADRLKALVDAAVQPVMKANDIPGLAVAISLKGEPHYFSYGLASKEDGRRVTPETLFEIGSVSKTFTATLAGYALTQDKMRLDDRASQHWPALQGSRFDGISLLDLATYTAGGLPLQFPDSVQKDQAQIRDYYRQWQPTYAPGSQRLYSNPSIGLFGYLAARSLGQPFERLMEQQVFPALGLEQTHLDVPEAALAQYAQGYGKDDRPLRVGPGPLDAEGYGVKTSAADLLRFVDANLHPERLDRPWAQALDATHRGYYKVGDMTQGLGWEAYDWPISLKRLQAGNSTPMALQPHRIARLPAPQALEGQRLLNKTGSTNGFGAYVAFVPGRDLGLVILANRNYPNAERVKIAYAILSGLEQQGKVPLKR

[8] = molecular target: β-lactamase, Staphylococcus aureus Russell (Staphylococcus aureus, UniProt P00807); assay: β-lactamase inhibition I50; assay type: biochemical
β-lactamase, Staphylococcus aureus Russell, sequence (P00807 25-281): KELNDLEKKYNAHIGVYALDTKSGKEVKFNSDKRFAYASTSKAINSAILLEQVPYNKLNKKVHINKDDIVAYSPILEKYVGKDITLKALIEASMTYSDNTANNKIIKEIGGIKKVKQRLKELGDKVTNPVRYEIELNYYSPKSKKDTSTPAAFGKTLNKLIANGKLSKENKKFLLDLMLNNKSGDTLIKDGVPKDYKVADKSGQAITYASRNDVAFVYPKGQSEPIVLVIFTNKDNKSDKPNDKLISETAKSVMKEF

Strep. pyogenes = assay: MIC in agar; assay type: cell-based; details: Streptococcus pyogenes, Strep. pyogenes (strain not given), read-out: concentration required to inhibit the growth
[9] = Serratia marcescens US20, read-out: concentration required to inhibit the growth

| Structure (SMILES) | MIC (Bacillus subtilis A) | MIC (Klebsiella aerogenes A) | MIC (Staph. aureus 1517) | MIC (Staph. aureus Oxford) | MIC (Staph. aureus Russell) | MIC (Shigella sonnei MB 11967) | MIC (Citrobacter freundii E8) | MIC (Enterobacter cloacae N1) | MIC (E. coli 0111) | MIC [1] | MIC (Proteus mirabilis C977) | further results |
| --- | --- | --- | --- | --- | --- | --- | --- | --- | --- | --- | --- | --- |
| COC(=O)/C=C/CC1C(=O)N2C(C(=O)OCC(Cl)(Cl)Cl)=CCC12 (stereo not shown) [compound 8, 2,2,2-Trichloroethyl-6-(3-methoxycarbonyl-2-propen-1-yl)-7-oxo-1-azabicyclo[3,2,0]hept-2-ene-2-carboxylate] | 20 mg/L (≈ 52.3 µM) | 20 mg/L (≈ 52.3 µM) | ≤ 2 mg/L | ≤ 2 mg/L | ≤ 2 mg/L | 20 mg/L (≈ 52.3 µM) | 20 mg/L (≈ 52.3 µM) |  |  |  |  | MIC (Strep pneumoniae): 20 mg/L (≈ 52.3 µM); MIC (Strep faecalis I): 20 mg/L (≈ 52.3 µM); MIC (Strep pyogenes CN10): 20 mg/L (≈ 52.3 µM) |
| CC(C)(O)[C@H]1C(=O)N2C(C(=O)OCc3ccccc3)=CC[C@@H]12 (relative stereo) [Example 4 cis-isomer, Benzyl 6-(2-hydroxy-2-propyl)-7-oxo-1-azabicyclo[3,2,0]hept-2-ene-2-carboxylate] |  | ≤ 2 mg/L |  | ≤ 2 mg/L | ≤ 2 mg/L | ≤ 2 mg/L |  | 20 mg/L (≈ 66.4 µM) |  |  |  | MIC (Serratia marcescens US20; [9]): 20 mg/L (≈ 66.4 µM) |
| O=C(OC1OC(=O)c2ccccc21)C1=CCC2CC(=O)N12 (stereo not shown) [compound 81, Phthalidyl 7-oxo-1-azabicyclo[3,2,0]hept-2-ene-2-carboxylate] | 20 mg/L (≈ 70.1 µM) | 20 mg/L (≈ 70.1 µM) |  | 20 mg/L (≈ 70.1 µM) | 20 mg/L (≈ 70.1 µM) |  | 20 mg/L (≈ 70.1 µM) | 20 mg/L (≈ 70.1 µM) | 20 mg/L (≈ 70.1 µM) | 20 mg/L (≈ 70.1 µM) | 20 mg/L (≈ 70.1 µM) | MIC (Pseudomonas aeruginosa A): 160 mg/L (≈ 561 µM); MIC (Serratia marcescens US20; US20, Serratia marcescens VS20, read-out: concentration required to inhibit the growth): 20 mg/L (≈ 70.1 µM) |
| COC(=O)/C=C/CC1C(=O)N2C(C(=O)OCOC(=O)C(C)(C)C)=CCC12 (stereo not shown) [compound 52, Pivaloyloxymethyl 6-(3-methoxycarbonyl-2-propen-1-yl)-7-oxo-1-azabicyclo[3,2,0]hept-2-ene-2-carboxylate] | 20 mg/L (≈ 54.7 µM) | 20 mg/L (≈ 54.7 µM) | 2 mg/L (≈ 5.47 µM) | 2 mg/L (≈ 5.47 µM) | 2 mg/L (≈ 5.47 µM) | 20 mg/L (≈ 54.7 µM) |  |  | 20 mg/L (≈ 54.7 µM) | 20 mg/L (≈ 54.7 µM) |  |  |
| COC(=O)/C=C/C[C@H]1C(=O)N2C(C(=O)OC3OC(=O)c4ccccc43)=CC[C@@H]12 (relative stereo) [compound 41, Phthalidyl 6-(3-methoxycarbonyl-2-propen-1-yl)-7-oxo-1-azabicyclo[3,2,0]hept-2-ene-2-carboxylate] | 25 mg/L (≈ 65.2 µM) | 50 mg/L (≈ 130 µM) | ≤ 0.8 mg/L | ≤ 0.8 mg/L | ≤ 0.8 mg/L | 50 mg/L (≈ 130 µM) |  |  | 50 mg/L (≈ 130 µM) | 50 mg/L (≈ 130 µM) | 100 mg/L (≈ 261 µM) | MIC (Strep pyogenes CN10): ≤ 0.8 mg/L |
| N#C/C=C/C[C@H]1C(=O)N2C(C(=O)OCc3ccccc3)=CC[C@@H]12 (relative stereo) [compound 56, Benzyl 6-(3-cyano-2-propen-1-yl)-7-oxo-1-azabicyclo[3,2,0]hept-2-ene-2-carboxylat] | 20 mg/L (≈ 64.9 µM) | 20 mg/L (≈ 64.9 µM) | ≤ 2 mg/L | ≤ 2 mg/L | ≤ 2 mg/L | 20 mg/L (≈ 64.9 µM) | 20 mg/L (≈ 64.9 µM) | 20 mg/L (≈ 64.9 µM) | 20 mg/L (≈ 64.9 µM) | 20 mg/L (≈ 64.9 µM) | 20 mg/L (≈ 64.9 µM) | MIC (Proteus morganii I 580): 20 mg/L (≈ 64.9 µM); MIC (Serratia marcescens US20; [9]): 20 mg/L (≈ 64.9 µM); MIC (Proteus rettgeri WM16): 20 mg/L (≈ 64.9 µM) |
| N#C/C=C/C[C@H]1C(=O)N2C(C(=O)OC3OC(=O)c4ccccc43)=CC[C@@H]12 (relative stereo) [compound 61, Phthalidyl 6-(3-cyano-2-propen-1-yl)-7-oxo-1-azabicyclo[3,2,0]hept-2-ene-2-carboxylat] |  |  |  | 2.4 mg/L (≈ 6.85 µM) | 2.4 mg/L (≈ 6.85 µM) | 22 mg/L (≈ 62.8 µM) | 7.3 mg/L (≈ 20.8 µM) | 22 mg/L (≈ 62.8 µM) | 7.3 mg/L (≈ 20.8 µM) |  | 66.6 mg/L (≈ 190 µM) | MIC (Proteus morganii I 580): 22 mg/L (≈ 62.8 µM); MIC (Klebsiella aerogenes): 7.3 mg/L (≈ 20.8 µM); MIC (Serratia marcescens US20; [9]): 22 mg/L (≈ 62.8 µM); MIC (Salmonella typhimurium): 7 mg/L (≈ 20 µM); MIC (Proteus rettgeri WM16): 22 mg/L (≈ 62.8 µM); MIC (Proteus vulgaris WO 91): 66.6 mg/L (≈ 190 µM) |
| O=CCC1C(=O)N2C(C(=O)OCc3ccccc3)=CCC12 (stereo not shown) [compound 4, Benzyl 6-(2-oxoethyl)-7-oxo-1-azabicyclo[3,2,0]hept-2-ene-2-carboxylate] |  |  |  |  |  |  |  |  |  |  |  | IC50 [2]: 3.51 µM; IC50 [3]: 5.61 µM; β-lactamase inhibition I50 [4]: 2.1 µg/mL; IC50 [5]: < 4.21 µM; β-lactamase inhibition I50 [6]: > 40 µg/mL; IC50 [7]: > 140 µM; IC50 [8]: > 35.1 µM |
| O=C(OCc1ccccc1)C1=CC[C@H]2[C@@H](C3(O)CCCCC3)C(=O)N12 (relative stereo) [compound 34, Benzyl 6-(1-hydroxycyclohex-1-yl)-7-oxo-1-azabicyclo[3,2,0]hept-2-ene-2-carboxylate] |  |  |  |  |  |  |  |  |  |  |  | IC50 [3]: 14.6 µM; IC50 [5]: 46.9 µM; IC50 [7]: 4.1 µM; IC50 [8]: 13.5 µM |
| COC(=O)/C=C/CC1C(=O)N2C(C(=O)OCc3ccccc3)=CCC12 (stereo not shown) [compound 5, Benzyl 6-(3-methoxycarbonyl-2-propen-1-yl)-7-oxo-1-azabicyclo[3,2,0]hept-2-ene-2-carboxylate] | 20 mg/L (≈ 58.6 µM) | 20 mg/L (≈ 58.6 µM) | 2 mg/L (≈ 5.86 µM) |  | 2 mg/L (≈ 5.86 µM) | 20 mg/L (≈ 58.6 µM) | 20 mg/L (≈ 58.6 µM) |  |  |  |  |  |
| O=C(OCc1ccccc1)C1=CC[C@@H]2[C@H](C(O)c3ccccc3)C(=O)N12 (stereo partly shown) [compound 30, Benzyl 6-(1-hydroxy-1-phenylmethyl)-7-oxo-1-azabicyclo[3,2,0]hept-2-ene-2-carboxylate] |  |  |  |  |  |  |  |  |  |  |  | β-lactamase inhibition I50 [4]: 0.27 µg/mL; IC50 [8]: 0.149 µM |
| COC(=O)/C=C/CC1C(=O)N2C(C(=O)OCc3ccc([N+](=O)[O-])cc3)=CCC12 (stereo not shown) [53a, p-Nitrobenzyl 6-(3-methoxycarbonyl-2-propen-1-yl)-7-oxo-1-azabicyclo[3,2,0]hept-2-ene-2-carboxylate] |  |  |  |  | 2.46 mg/L (≈ 6.37 µM) |  |  |  |  |  |  | MIC (Strep pneumoniae): 7.4 mg/L (≈ 19.2 µM); MIC (Strep. pyogenes): 0.8 mg/L (≈ 2.07 µM) |
